The results in this text go back to patent US20250230165A1, “HETEROCYCLIC COMPOUNDS FOR USE IN THE TREATMENT OF CANCER” (ARTIOS PHARMA LIMITED, priority 2021, published 2025).

The structures appear in SMILES notation.

The target of the test is T1, Human Polθ polymerase domain (aa1820-2590) (Homo sapiens, UniProt O75417).
T1 construct: Human Polθ polymerase domain (aa1820-2590) was expressed in E. coli; made in house; host or cells: E. coli
T1 sequence (O75417 1820-2590): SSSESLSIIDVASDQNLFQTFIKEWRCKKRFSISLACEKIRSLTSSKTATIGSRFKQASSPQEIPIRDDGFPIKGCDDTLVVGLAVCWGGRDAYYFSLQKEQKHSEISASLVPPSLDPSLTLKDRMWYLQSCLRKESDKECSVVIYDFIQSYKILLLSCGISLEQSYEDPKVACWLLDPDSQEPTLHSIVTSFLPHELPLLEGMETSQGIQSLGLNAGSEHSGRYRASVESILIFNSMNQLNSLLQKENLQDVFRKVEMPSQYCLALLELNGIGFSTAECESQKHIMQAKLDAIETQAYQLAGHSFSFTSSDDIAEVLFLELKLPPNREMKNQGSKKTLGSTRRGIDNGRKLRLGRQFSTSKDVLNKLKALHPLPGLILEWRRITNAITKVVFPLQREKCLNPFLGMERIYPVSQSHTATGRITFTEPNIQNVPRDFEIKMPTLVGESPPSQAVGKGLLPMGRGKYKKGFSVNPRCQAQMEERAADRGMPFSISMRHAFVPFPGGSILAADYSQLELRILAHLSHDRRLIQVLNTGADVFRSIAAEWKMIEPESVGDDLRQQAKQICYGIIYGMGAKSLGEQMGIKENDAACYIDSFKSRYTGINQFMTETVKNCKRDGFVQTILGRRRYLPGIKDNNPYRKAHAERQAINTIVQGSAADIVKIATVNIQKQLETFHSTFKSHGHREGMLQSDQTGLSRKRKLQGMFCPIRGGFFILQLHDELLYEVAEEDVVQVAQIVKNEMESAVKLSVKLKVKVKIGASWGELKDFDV
As to the kind of experiment: Polθ Polymerase Domain Kinact/KI Assay (PicoGreen). In kind it is biochemical. Particulars: 0.8 nM Polθ, 100 nM DNA substrate, kobs vs [I] fit for 2-step covalent inhibitor. An outline of the steps: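 Enzyme 0.8 nM, annealed DNA substrate 100 nM, […]; 25 mM Tris pH 7.5, 5% glycerol, 0.01% Triton X-100, 0.1 mg/ml BSA, 1 mM DTT, 1% DMSO. Quench with EDTA at timepoints to 60 min; PicoGreen read. kobs from time courses → Kinact/KI.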
With `C=CC(=O)N1CC2(CN(CCN3C[C@H]4CC(=O)N(c5cc(C(F)(F)F)cc(C)n5)[C@@H]4C(=O)N(C)c4cccc(F)c43)CCN2)C1` [Example 30, (3aR,11aS)-5-(2-(2-acryloyl-2,5,8-triazaspiro[3.5]nonan-8-yl)ethyl)-6-fluoro-10-methyl-1-(6-methyl-4-(trifluoromethyl)pyridin-2-yl)-1,3a,4,5,10,11a-hexahydro-2H-benzo[b]pyrrolo[2,3-f][1,4]diazocine-2,11(3H)-dione], the Kinact/Kl came out at 0.69 µM⁻¹ s⁻¹.

Regarding `C=CC(=O)N1CC2(CN(CCN3C[C@H]4CC(=O)N(c5cc(C(F)(F)F)cc(C)n5)[C@@H]4C(=O)N(C)c4cccc(F)c43)C[C@@H](C)N2)C1` [Example 31, (3aR,11aS)-5-(2-((R)-2-acryloyl-6-methyl-2,5,8-triazaspiro[3.5]nonan-8-yl)ethyl)-6-fluoro-10-methyl-1-(6-methyl-4-(trifluoromethyl)pyridin-2-yl)-1,3a,4,5,10, 11a-hexahydro-2H-benzo [b]pyrrolo[2,3-f][1,4] diazocine-2,11(3H)-dione], the Kinact/Kl came to 1.13 µM⁻¹ s⁻¹.

Compound `C=CC(=O)N1CC2(CN(CCN3C[C@H]4CC(=O)N(c5cc(C(F)(F)F)cc(C)n5)[C@@H]4C(=O)N(C)c4cccc(F)c43)C[C@H](C)N2)C1` [Example 32, (3aR,11aS)-5-(2-((S)-2-acryloyl-6-methyl-2,5,8-triazaspiro[3.5]nonan-8-yl)ethyl)-6-fluoro-10-methyl-1-(6-methyl-4-(trifluoromethyl)pyridin-2-yl)-1,3a,4,5,10,11a-hexahydro-2H-benzo[b] pyrrolo[2,3-f][1,4] diazocine-2,11(3H)-dione] returned a Kinact/Kl of 0.42 µM⁻¹ s⁻¹. Turning to `C=CC(=O)N1CC2(CN(CCN3C[C@H]4CC(=O)N(c5cc(C(F)(F)F)cc(C)n5)[C@@H]4C(=O)N(C)c4cccc(Cl)c43)CCN2)C1` [Example 33, (3aR,11aS)-5-(2-(2-acryloyl-2,5,8-triazaspiro[3.5]nonan-8-yl)ethyl)-6-chloro-10-methyl-1-(6-methyl-4-(trifluoromethyl)pyridin-2-yl)-1,3a,4,5, 10,11a-hexahydro-2H-benzo[b]pyrrolo [2,3-f][1,4]diazocine-2,11(3H)-dione], the Kinact/Kl stood at 1.23 µM⁻¹ s⁻¹. `C=CC(=O)N1CC2(CN(CCN3C[C@H]4CC(=O)N(c5cc(C(F)(F)F)cc(C)n5)[C@@H]4C(=O)N(C)c4cccc(F)c43)CCN2CC)C1` [Example 35, (3aR,11aS)-5-(2-(2-acryloyl-5-ethyl-2,5,8-triazaspiro[3.5]nonan-8-yl)ethyl)-6-fluoro-10-methyl-1-(6-methyl-4-(trifluoromethyl)pyridin-2-yl)-1,3a,4,5,10,11a-hexahydro-2H-benzo[b]pyrrolo[2,3-f][1,4]diazocine-2,11(3H)-dione] yielded a Kinact/Kl of 0.87 µM⁻¹ s⁻¹.

Take `C=CC(=O)N1CC2(CN(CCN3C[C@H]4CC(=O)N(c5cc(C(F)(F)F)cc(C)n5)[C@@H]4C(=O)N(C)c4cccc(F)c43)CCN2C(C)=O)C1` [Example 36, (3aR,11aS)-5-(2-(5-acetyl-2-acryloyl-2,5,8-triazaspiro[3.5]nonan-8-yl)ethyl)-6-fluoro-10-methyl-1-(6-methyl-4-(trifluoromethyl)pyridin-2-yl)-1,3a,4,5,10,11a-hexahydro-2H-benzo[b]pyrrolo[2,3-f][1,4]diazocine-2,11(3H)-dione]: the Kinact/Kl was 1.47 µM⁻¹ s⁻¹. Then `C=CC(=O)N1CC2(C1)N[C@H](C)CN(CCN1C[C@H]3CC(=O)N(c4cc(C(F)(F)F)cc(C)n4)[C@@H]3C(=O)N(C)c3cccc(F)c31)C2C` (stereo partly drawn) [Example 37a, (3aR,11aS)-5-(2-((6R,9S/R)-2-acryloyl-6,9-dimethyl-2,5,8-triazaspiro[3.5]nonan-8-yl)ethyl)-6-fluoro-10-methyl-1-(6-methyl-4-(trifluoromethyl)pyridin-2-yl)-1,3a,4,5,10,11a-hexahydro-2H-benzo[b]pyrrolo[2,3-f][1,4]diazocine-2,11(3H)-dione], with 1.48 µM⁻¹ s⁻¹; and `C=CC(=O)N1CC(n2cnc(CN3C[C@H]4CC(=O)N(c5cc(C(F)(F)F)cc(C)n5)[C@@H]4C(=O)N(C)c4cccc(F)c43)c2)C1` [Example 38, (3aR,11aS)-5-((1-(1-acryloylazetidin-3-yl)-1H-imidazol-4-yl)methyl)-6-fluoro-10-methyl-1-(6-methyl-4-(trifluoromethyl)pyridin-2-yl)-1,3a,4,5,10,11a-hexahydro-2H-benzo[b]pyrrolo[2,3-f][1,4]diazocine-2,11(3H)-dione], with 2.39 µM⁻¹ s⁻¹; and `C=CC(=O)N1CC(n2cnc(CN3C[C@H]4CC(=O)N(c5cc(C(F)(F)F)cc(C)n5)[C@@H]4C(=O)N(C)c4cccc(Cl)c43)c2)C1` [Example 39, (3aR,11aS)-5-((1-(1-acryloylazetidin-3-yl)-1H-imidazol-4-yl)methyl)-6-chloro-10-methyl-1-(6-methyl-4-(trifluoromethyl)pyridin-2-yl)-1,3a,4,5,10,11a-hexahydro-2H-benzo[b]pyrrolo[2,3-f][1,4]diazocine-2,11(3H)-dione], with 3.42 µM⁻¹ s⁻¹. In turn, `C=CC(=O)N1CC(n2cnc(CN3C[C@H]4CC(=O)N(c5cc(C(F)(F)F)cc(C)n5)[C@@H]4C(=O)N(C)c4cc(F)ccc43)c2)C1` [Example 40, (3aR,11aS)-5-((1-(1-acryloylazetidin-3-yl)-1H-imidazol-4-yl)methyl)-8-fluoro-10-methyl-1-(6-methyl-4-(trifluoromethyl)pyridin-2-yl)-1,3a,4,5,10,11a-hexahydro-2H-benzo[b]pyrrolo[2,3-f][1,4]diaocine-2,11(3H)-dione] had a Kinact/Kl of 0.85 µM⁻¹ s⁻¹. On to `C=CC(=O)N1CC(n2ccc(CN3C[C@H]4CC(=O)N(c5cc(C(F)(F)F)cc(C)n5)[C@@H]4C(=O)N(C)c4cc(F)ccc43)n2)C1` [Example 41, (3aR,11aS)-5-((1-(1-acryloylazetidin-3-yl)-1H-pyrazol-3-yl)methyl)-8-fluoro-10-methyl-1-(6-methyl-4-(trifluoromethyl)pyridin-2-yl)-1,3a,4,5,10,11a-hexahydro-2H-benzo[b]pyrrolo[2,3-f][1,4]diazocine-2,11(3H)-dione], for which the Kinact/Kl is 1.38 µM⁻¹ s⁻¹. Then `C=CC(=O)N1CC(n2cnc(CN3C[C@H]4CC(=O)N(c5cc(C(F)(F)F)cc(C)n5)[C@@H]4C(=O)N(C)c4cccc(Cl)c43)n2)C1` [Example 42, (3aR,11aS)-5-((1-(1-acryloylazetidin-3-yl)-1H-1,2,4-triazol-3-yl)methyl)-6-chloro-10-methyl-1-(6-methyl-4-(trifluoromethyl)pyridin-2-yl)-1,3a,4,5,10,11a-hexahydro-2H-benzo[b]pyrrolo[2,3-f][1,4]diazocine-2,11(3H)-dione], with 0.79 µM⁻¹ s⁻¹; and `Cc1cc(C(F)(F)F)cc(N2C(=O)C[C@@H]3CN(CCCOC4CN(C(=O)/C=C/CN(C)C)C4)c4c(F)cccc4N(C)C(=O)[C@H]32)n1` [Example 43, (3aR,11aS)-5-(3-((1-((E)-4-(dimethylamino)but-2-enoyl)azetidin-3-yl)oxy)propyl)-6-fluoro-10-methyl-1-(6-methyl-4-(trifluoromethyl)pyridin-2-yl)-1,3a,4,5,10,11a-hexahydro-2H-benzo[b]pyrrolo[2,3-f][1,4]diazocine-2,11(3H)-dione], with 1.90 µM⁻¹ s⁻¹. Under `Cc1cc(C(F)(F)F)cc(N2C(=O)C[C@@H]3CN(CCCOC4CN(C(=O)/C=C/CN(C)C)C4)c4c(Cl)cccc4N(C)C(=O)[C@H]32)n1` [Example 44, (3aR,11aS)-6-chloro-5-(3-((1-((E)-4-(dimethylamino)but-2-enoyl)azetidin-3-yl)oxy)propyl)-10-methyl-1-(6-methyl-4-(trifluoromethyl)pyridin-2-yl)-1,3a,4,5,10,11a-hexahydro-2H-benzo[b]pyrrolo[2,3-f][1,4]diazocine-2,11(3H)-dione] stands 2.22 µM⁻¹ s⁻¹; under `C=CC(=O)N1CCN2CCN(CCN3C[C@H]4CC(=O)N(c5cc(C(F)(F)F)cc(C)n5)[C@@H]4C(=O)N(C)c4cccc(F)c43)C(=O)[C@@H]2C1` [Example 45, (3aR,11aS)-5-(2-((S)-8-acryloyl-1-oxooctahydro-2H-pyrazino[1,2-a]pyrazin-2-yl)ethyl)-6-fluoro-10-methyl-1-(6-methyl-4-(trifluoromethyl)pyridin-2-yl)-1,3a,4,5,10,11a-hexahydro-2H-benzo[b]pyrrolo[2,3-f][1,4]diazocine-2,11(3H)-dione], 0.31 µM⁻¹ s⁻¹.
